The target of the test is Human TASK-1 channels (Homo sapiens (Human), UniProt O14649). Briefly: Activity on the TASK-1 channel in Xenopus oocytes (two-microelectrode voltage clamp). It is filed as cell-based. The following applies: for IC50: human TASK-1 expressed in Xenopus oocytes, currents during pulses to 40 mV, room temperature. The protocol:
Human TASK-1 channels were expressed in Xenopus oocytes. For this purpose, oocytes were isolated from Xenopus laevis and defoliculated. Subsequently, TASK-1-encoding RNA synthesized in vitro was injected into oocytes. […] Data were acquired and analyzed using a TEC-10cx amplifier (NPI Electronic, Tamm, Germany) connected to an ITC-16 interface (Instrutech Corp., Long Island, USA) and Pulse software (HEKA Elektronik, Lambrecht, Germany). […] Oocytes were continuously superfused with ND96 buffer containing: NaCl 96 mM, KCl 2 mM, CaCl2 1.8 mM, MgCl2 1 mM, HEPES 5 mM (pH adjusted to 7.4 with NaOH). All experiments were performed at room temperature.
Test substances were consecutively added to the bath solution at rising concentrations. […] IC50 values were obtained by fitting the data to the general dose-response equation.

Some results are limits rather than exact numbers.

Sequence of Human TASK-1 channels (O14649 whole entry, the tested form may be a part): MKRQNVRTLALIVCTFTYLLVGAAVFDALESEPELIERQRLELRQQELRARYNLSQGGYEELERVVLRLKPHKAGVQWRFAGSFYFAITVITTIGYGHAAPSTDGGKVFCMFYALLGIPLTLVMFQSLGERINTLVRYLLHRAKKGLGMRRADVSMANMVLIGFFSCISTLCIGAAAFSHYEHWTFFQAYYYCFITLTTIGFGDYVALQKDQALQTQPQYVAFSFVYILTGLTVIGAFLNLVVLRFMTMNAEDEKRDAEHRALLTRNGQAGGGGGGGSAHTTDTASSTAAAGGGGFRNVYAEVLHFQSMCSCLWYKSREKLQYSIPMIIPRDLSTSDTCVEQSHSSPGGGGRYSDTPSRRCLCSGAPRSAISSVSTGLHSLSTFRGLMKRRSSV

By IC50 is commonly meant the midpoint of a concentration-inhibition curve. A higher IC50 goes with weaker potency. In turn, `COc1cccc(-c2nn(Cc3ccc(F)cc3F)c3c2CN(C(C)=O)CC3)c1` [Example 6at, 1-[1-(2,4-Difluoro-benzyl)-3-(3-methoxy-phenyl)-1,4,6,7-tetrahydro-pyrazolo[4,3-c]pyridin-5-yl]-ethanone] displayed an IC50 of 720 nM. In turn, `CC(=O)N1CCc2c(c(-c3ccc(F)cc3)nn2Cc2cccc(C(F)(F)F)c2)C1` [Example 6av, 1-[3-(4-Fluoro-phenyl)-1-(3-trifluoromethyl-benzyl)-1,4,6,7-tetrahydro-pyrazolo[4,3-c]pyridin-5-yl]-ethanone] yielded a concentration for half-maximal inhibition (IC50) of 911 nM. Still for that read-out and setting: next, `CC(=O)N1CCc2c(c(-c3cccc(OC(F)(F)F)c3)nn2C(C)c2ccc(F)cc2)C1` (stereo not shown) [Example 6aw, 1-[1-[1-(4-Fluoro-phenyl)-ethyl]-3-(3-trifluoromethoxy-phenyl)-1,4,6,7-tetrahydro-pyrazolo[4,3-c]pyridin-5-yl]-ethanone]: 947 nM; `COc1cc(-c2nn(Cc3ccc(F)cc3F)c3c2CN(C(C)=O)CC3)ccc1F` [Example 6ax, 1-[1-(2,4-Difluoro-benzyl)-3-(4-fluoro-3-methoxy-phenyl)-1,4,6,7-tetrahydro-pyrazolo[4,3-c]pyridin-5-yl]-ethanone]: 975 nM. Usually inhibition stands for the share of the control response that was lost under treatment. Read a high inhibition as strong suppression. `CC(=O)N1CCc2c(c(-c3cccc(C#N)c3)nn2Cc2cc(F)ccc2F)C1` [Example 6ay, 3-[5-Acetyl-1-(2,5-difluoro-benzyl)-4,5,6,7-tetrahydro-1H-pyrazolo[4,3-c]pyridin-3-yl]-benzonitrile]: testing at 5 µM gave an inhibition of 86%. With `CC(=O)N1CCc2c(c(-c3cccc(C)c3)nn2Cc2ccc(F)cc2F)C1` [Example 6az, 1-[1-(2,4-Difluoro-benzyl)-3-m-tolyl-1,4,6,7-tetrahydro-pyrazolo[4,3-c]pyridin-5-yl]-ethanone], the inhibition at 5 µM was 89%. Molecule `CC(=O)N1CCc2c(c(-c3cccc(C(F)(F)F)c3)nn2Cc2ccc(Cl)nc2)C1` [Example 6b, 1-[1-(6-Chloro-pyridin-3-ylmethyl)-3-(3-trifluoromethyl-phenyl)-1,4,6,7-tetrahydro-pyrazolo[4,3-c]pyridin-5-yl]-ethanone] had an IC50 of 172 nM. Regarding `CC(=O)N1CCc2c(c(-c3cccc(Cl)c3)nn2Cc2ccc(F)cc2C)C1` [Example 6ba, 1-[3-(3-Chloro-phenyl)-1-(4-fluoro-2-methyl-benzyl)-1,4,6,7-tetrahydro-pyrazolo[4,3-c]pyridin-5-yl]-ethanone], the inhibition at 5 µM worked out at 81%. Same read-out and setting: the same measure for `CC(=O)N1CCc2c(c(-c3cccc(C)c3)nn2Cc2ccccc2F)C1` [Example 6bb, 1-[1-(2-Fluoro-benzyl)-3-m-tolyl-1,4,6,7-tetrahydro-pyrazolo[4,3-c]pyridin-5-yl]-ethanone]: 82%; for `COc1ccccc1Cn1nc(-c2cccc(C(F)(F)F)c2)c2c1CCN(C(C)=O)C2` [Example 6bc, 1-[1-(2-Methoxy-benzyl)-3-(3-trifluoromethyl-phenyl)-1,4,6,7-tetrahydro-pyrazolo[4,3-c]pyridin-5-yl]-ethanone]: 70%. `COc1cccc(Cn2nc(-c3cccc(Cl)c3)c3c2CCN(C(C)=O)C3)c1` [Example 6bd, 1-[3-(3-Chloro-phenyl)-1-(3-methoxy-benzyl)-1,4,6,7-tetrahydro-pyrazolo[4,3-c]pyridin-5-yl]-ethanone]: the IC50 was below 10000 nM. In turn, `CC(=O)N1CCc2c(c(-c3ccc(F)cc3)nn2Cc2ccc(Cl)c(F)c2)C1` [Example 6bg, 1-[1-(4-Chloro-3-fluoro-benzyl)-3-(4-fluoro-phenyl)-1,4,6,7-tetrahydro-pyrazolo[4,3-c]pyridin-5-yl]-ethanone] returned an IC50 of 398 nM.

`COc1ccc(F)c(-c2nn(Cc3ccc(F)cc3F)c3c2CN(C(C)=O)CC3)c1` [Example 6bh, 1-[1-(2,4-Difluoro-benzyl)-3-(2-fluoro-5-methoxy-phenyl)-1,4,6,7-tetrahydro-pyrazolo[4,3-c]pyridin-5-yl]-ethanone] yielded an IC50 below 10000 nM.

For `CC(=O)N1CCc2c(c(-c3ccc(F)c(C#N)c3)nn2Cc2ccc(F)cc2F)C1` [Example 6bi, 5-[5-Acetyl-1-(2,4-difluoro-benzyl)-4,5,6,7-tetrahydro-1H-pyrazolo[4,3-c]pyridin-3-yl]-2-fluoro-benzonitrile], the half-inhibitory concentration (IC50) was determined as 1640 nM. Molecule `CC(=O)N1CCc2c(c(-c3cccc(F)c3)nn2Cc2ccc(F)cc2F)C1` [Example 6bj, 1-[1-(2,4-Difluoro-benzyl)-3-(3-fluoro-phenyl)-1,4,6,7-tetrahydro-pyrazolo[4,3-c]pyridin-5-yl]-ethanone] returned a 50% inhibitory concentration (IC50) of 1160 nM. Still for that read-out and setting: next, `CC(=O)N1CCc2c(c(-c3ccc(C(F)(F)F)cc3)nn2Cc2ccc(F)cc2F)C1` [Example 6bk, 1-[1-(2,4-Difluoro-benzyl)-3-(4-trifluoromethyl-phenyl)-1,4,6,7-tetrahydro-pyrazolo[4,3-c]pyridin-5-yl]-ethanone]: 1150 nM. Molecule `CC(=O)N1CCc2c(c(-c3cccc(C(F)(F)F)c3)nn2Cc2ccc(C)cc2F)C1` [Example 6bn, 1-[1-(2-Fluoro-4-methyl-benzyl)-3-(3-trifluoromethyl-phenyl)-1,4,6,7-tetrahydro-pyrazolo[4,3-c]pyridin-5-yl]-ethanone] displayed an inhibition at 5 µM of 81%. In the case of `CC(=O)N1CCc2c(c(-c3cccc(C(F)(F)F)c3)nn2Cc2cnccc2Cl)C1` [Example 6c, 1-[1-(4-Chloro-pyridin-3-ylmethyl)-3-(3-trifluoromethyl-phenyl)-1,4,6,7-tetrahydro-pyrazolo[4,3-c]pyridin-5-yl]-ethanone], the half-maximal inhibitory concentration (IC50) turned out to be 215 nM. The same measure, in the same setting: the same measure for `CC(=O)N1CCc2c(c(-c3cccc(C(F)(F)F)c3)nn2Cc2ncccc2C)C1` [Example 6d, 1-[1-(3-Methyl-pyridin-2-ylmethyl)-3-(3-trifluoromethyl-phenyl)-1,4,6,7-tetrahydro-pyrazolo[4,3-c]pyridin-5-yl]-ethanone]: 422 nM; for `CC(=O)N1CCc2c(c(-c3ccc(F)cc3)nn2Cc2ccc(F)cc2F)C1` [Example 6f, 1-[1-(2,4-Difluoro-benzyl)-3-(4-fluoro-phenyl)-1,4,6,7-tetrahydro-pyrazolo[4,3-c]pyridin-5-yl]-ethanone]: 598 nM; for `CC(=O)N1CCc2c(c(-c3cccc(C(F)(F)F)n3)nn2Cc2ccc(F)cc2)C1` [Example 6g, 1-[1-(4-Fluoro-benzyl)-3-(6-trifluoromethyl-pyridin-2-yl)-1,4,6,7-tetrahydro-pyrazolo[4,3-c]pyridin-5-yl]-ethanone]: 99.5 nM. Still for that read-out and setting: the same measure for `CC(=O)N1CCc2c(c(-c3cc(C(F)(F)F)ccn3)nn2Cc2ccc(F)cc2F)C1` [Example 6h, 1-[1-(2,4-Difluoro-benzyl)-3-(4-trifluoromethyl-pyridin-2-yl)-1,4,6,7-tetrahydro-pyrazolo[4,3-c]pyridin-5-yl]-ethanone]: 190 nM; for `CC(=O)N1CCc2c(c(-c3cccc(C(F)(F)F)n3)nn2Cc2ccc(F)cc2F)C1` [Example 6i, 1-[1-(2,4-Difluoro-benzyl)-3-(6-trifluoromethyl-pyridin-2-yl)-1,4,6,7-tetrahydro-pyrazolo[4,3-c]pyridin-5-yl]-ethanone]: 216 nM. Same read-out and setting: the same measure for `CC(=O)N1CCc2c(c(-c3cc(Br)ccn3)nn2Cc2ccc(F)cc2F)C1` [Example 6j, 1-[3-(4-Bromo-pyridin-2-yl)-1-(2,4-difluoro-benzyl)-1,4,6,7-tetrahydro-pyrazolo[4,3-c]pyridin-5-yl]-ethanone]: below 10000 nM. `CC(=O)N1CCc2c(c(-c3ccnc(Br)c3)nn2Cc2ccc(F)cc2F)C1` [Example 6k, 1-[3-(2-Bromo-pyridin-4-yl)-1-(2,4-difluoro-benzyl)-1,4,6,7-tetrahydro-pyrazolo[4,3-c]pyridin-5-yl]-ethanone] yielded an inhibition at 5 µM of 78%.

`CC(=O)N1CCc2c(c(-c3cncc(Br)c3)nn2Cc2ccc(F)cc2F)C1` [Example 6m, 1-[3-(5-Bromo-pyridin-3-yl)-1-(2,4-difluoro-benzyl)-1,4,6,7-tetrahydro-pyrazolo[4,3-c]pyridin-5-yl]-ethanone] yielded an IC50 of 2440 nM. The same measure, in the same setting: next, `CC(=O)N1C2CCC1c1c(-c3cccc(C#N)c3)nn(Cc3ccc(F)cc3F)c1C2` (stereo not shown) [Example 6n, 3-[11-Acetyl-5-(2,4-difluoro-benzyl)-4,5,11-triaza-tricyclo[6.2.1.02,6]undeca-2(6),3-dien-3-yl]-benzonitrile]: 91 nM; `CC(=O)N1C2CCC1c1c(-c3ccc(F)cc3)nn(Cc3ccc(F)cc3F)c1C2` (stereo not shown) [Example 6o, 1-[5-(2,4-Difluoro-benzyl)-3-(4-fluoro-phenyl)-4,5,11-triaza-tricyclo [6.2.1.02,6]undeca-2(6),3-dien-11-yl]-ethanone]: below 10000 nM. For the molecule `CC(=O)N1CCc2c(c(-c3cccc(C)c3)nn2Cc2ccc(Cl)nc2)C1` [Example 6p, 1-[1-(6-Chloro-pyridin-3-ylmethyl)-3-m-tolyl-1,4,6,7-tetrahydro-pyrazolo[4,3-c]pyridin-5-yl]-ethanone], the inhibition at 5 µM is 88%. As for `COc1ccnc(Cn2nc(-c3cccc(C(F)(F)F)c3)c3c2CCN(C(C)=O)C3)c1` [Example 6q, 1-[1-(4-Methoxy-pyridin-2-ylmethyl)-3-(3-trifluoromethyl-phenyl)-1,4,6,7-tetrahydro-pyrazolo[4,3-c]pyridin-5-yl]-ethanone], at 5 µM the inhibition was 70%. Still for that read-out and setting: next, `CC(=O)N1CCc2c(c(-c3cccc(C)c3)nn2Cc2cnccc2Cl)C1` [Example 6r, 1-[1-(4-Chloro-pyridin-3-ylmethyl)-3-m-tolyl-1,4,6,7-tetrahydro-pyrazolo[4,3-c]pyridin-5-yl]-ethanone]: 79%.

Values taken from patent publication US9127001B2, “Substituted 4,5,6,7-tetrahydro-1H-pyrazolo[4,3-c]pyridines, their use as medicament, and pharmaceutical preparations comprising them” (Sanofi, priority 2011, dated 2015).
